In US8343985B2, “Methods for modulating Lyn kinase activity and treating related disorders” (Melior Pharmaceuticals I, Inc., priority 2005, dated 2013):
“Also recorded” adds a separate entry of the source.

How the values were obtained:
[1] = system: mouse model of hyperglycemia; assay: Oral glucose tolerance test in mice (mouse model of hyperglycemia); format: in vivo; conditions: for blood glucose levels / blood glucose load in mouse model of type II diabetes: mice administered high levels of glucose
Source text: Type II diabetes is characterized by high blood glucose levels in the presence of normal amounts of insulin. Animal models of type II diabetes involve administering high levels of glucose and measuring blood glucose levels and the ability of the experimental animal to maintain glucose homeostasis over time. Several pharmacological structural classes can effectively regulate this hyperglycemic response including sulfonylureas, thiazoladinediones (PPARγ agonists; glitazones) or metformin (glucophage). These drug classes are also clinically approved for use in humans. In the current study, we established a mouse model of hyperglycemia by administering high levels of glucose to mice.
Glucose was formulated in water at a concentration of 150 mg/ml and dosed at a volume of 10 ml/kg to produce a dose of 1.5 g/kg. Glucose was measured using the Ascensia II Elite XL glucose monitor (Bayer). Measure glucose by taking a small (2 mm) section off the tip of the tail, bleed onto glucose test strip and measure. Data for each time point analyzed by ANOVA and post-hoc Tukey's test. A p value of less then 0.05 was used to indicate statistical significance.
In study 1, mice were dosed with Compound 102 and glucose as follows:
In study 2, mice were dosed with Compound 102 and glucose as follows.
Study 3 tested Compound 102 and was conducted as follows: […]

Db/Db mice [2] = assay: In vivo Db/Db mouse obesity study
Procedure: (§1) Db/Db and Db/lean mice were obtained from Harlan at 6 weeks of age. Mice were housed 3 per cage and fed ad libitum normal rodent chow. Mice were kept on a 12 hr Light:dark cycle.
(§2) The study was initiated when mice reached an age of 8 weeks and their baseline blood glucose levels were greater than 200 mg/dl. Compound 102 was formulated in PBS: 2N HCl (99:1) at concentrations of 0.5, 1.5 and 5 mg/ml. Mice were dosed at volumes of 10 ml/kg to produce doses of 5, 15 and 50 mg/kg/dose. Mice were dosed twice per day at an 8 hr interval (8 am and 4 pm) during the light cycle.
Mice were administered vehicle or drug (i.e., Compound 102) (5, 15, and 50 mg/kg) twice per day (bid) for the 28 days. Mouse weight and food intake were monitored daily. Food intake is reported as food intake (grams) per mouse per 24 hr period.

Lyn Kinase enzyme = Lyn Kinase enzyme (Homo sapiens, UniProt P07948); assay: In vitro Lyn kinase enzyme activity; format: biochemical; conditions: FIG. 12
[3] = system: Male CD1/ICR mice fed Western Diet; assay: Western diet study: weight gain, food intake, fat pad weights; format: in vivo
Source text: Male CD1/ICR mice were obtained from Harlan. The study was started when mice were 8 weeks of age. Prior to initiation of the study mice fasted for 24 hrs. Mice were fed “Western Diet” that was designed to approximate the “typical” human diet of North America and Europe (Research Diets; New Brunswick, N.J.; Western Diet composition). The Western Diet contained greater then 5 times more fat then normal chow. [table] Mice were weighed daily beginning from the start of the 24 hr fasting period. Food intake was monitored continuously. Mice were bled by retroorbital eyebleed on days 7, 14, 21 and 28 after the initiation of the study. On day of REB mice were dosed 1× with full dose 1 hr prior to bleed. Fat pads were dissected at the end of the study (day 31) weighed and frozen. The following fat pads were dissected: brown, inguinal, axial, mesenteric, renal and epidydimal. Data were averaged and analyzed by ANOVA followed by a post-hoc Tukey's test with a p value of less then 0.05 indicating a statistical difference.

leptin = assay: Leptin levels in Western diet treated animals (ELISA); format: in vivo; conditions: Western diet mice
Procedure: Blood from mice that were on western diet (Compound 102) were analyzed for leptin levels. Mice were bled by retroorbital eyebleed on days 7, 14, 21 and 28 after the initiation of the study. On day of REB mice were dosed once with full dose 1 hr prior to bleed. Leptin levels were determined by ELISA (R&D Systems) as per directions. Data are expressed as the average ±SEM. Data were averaged and analyzed by ANOVA followed by a post-hoc Tukey's test with a p value of less then 0.05 indicating a statistical difference.

Zucker rats = assay: In vivo Zucker rat glucose study; conditions: 30 mg/kg ip, glucose 1.5 g/kg, 30 and 270 minutes
Procedure: Zucker rats and corresponding lean rats were supplied by Harlan. Rats were fed a normal diet, ad libitum, and kept on a 12 hr light/dark cycle. Rats were housed 3 per cage. At 12 weeks of age, Zucker rats were administered Compound 102 at a concentration of 30 mg/kg (ip). Blood glucose levels were measured 30 minutes after administration. Forty-five minutes after drug administration, animals were administered a glucose solution (1.5 g/kg) by oral gavage. Blood glucose levels were measured every 30 minutes after gavage for 4.5 hrs. There were 3 groups with 3 animals per group: 1) 3 Zucker leans (no drug; no glucose treatment); 2) Zucker vehicle treated group (glucose challenged and 3) Zucker Compound 102 treatment (30 mg/kg); glucose challenged.

Db/Db mice [4] = assay: In vivo Db/Db mouse obesity study; conditions: chronic administration to mice
Db/Db mice [5] = assay: In vivo Db/Db mouse glucose study
Procedure: as §1, §2
For the acute blood glucose measurements, blood glucose levels were measured after the animals received their first dose of Compound 102. Blood glucose levels were measured two hrs after this initial injection.

[6] = single dose of 2 or 10 mg/kg, FIG. 3

Lyn Kinase enzyme, sequence (P07948 whole entry): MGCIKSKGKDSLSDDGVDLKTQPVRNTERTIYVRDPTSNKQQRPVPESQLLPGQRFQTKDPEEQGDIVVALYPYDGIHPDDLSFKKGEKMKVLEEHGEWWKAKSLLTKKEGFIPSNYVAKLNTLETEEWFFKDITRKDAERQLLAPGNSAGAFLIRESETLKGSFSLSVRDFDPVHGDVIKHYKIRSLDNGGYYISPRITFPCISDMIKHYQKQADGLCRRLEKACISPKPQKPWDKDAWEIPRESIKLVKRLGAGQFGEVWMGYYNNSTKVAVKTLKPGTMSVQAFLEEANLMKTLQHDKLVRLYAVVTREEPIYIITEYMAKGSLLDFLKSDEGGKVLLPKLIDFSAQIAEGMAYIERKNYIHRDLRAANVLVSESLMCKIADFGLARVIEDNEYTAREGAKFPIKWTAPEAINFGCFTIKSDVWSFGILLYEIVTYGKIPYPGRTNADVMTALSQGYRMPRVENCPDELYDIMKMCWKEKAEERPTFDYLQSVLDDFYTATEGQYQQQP

**Q.** With `CN(C)C(=N)N=C(N)N` [metformin, reference compound] as the compound, how does the “blood glucose levels / blood glucose load in mouse model of type II diabetes” value [1] read?
**A.** can effectively reduce the blood glucose load

**Q.** What does the source list for `Cc1cccc(Oc2cnc(=O)[nH]c2)c1` [Compound 102]?
**A.** animal weight gain, dose dependence (Db/Db mice [2]; Db/Db mice, IP twice/day, four weeks): dose dependent effect; food intake (Db/Db mice [2]; Db/Db mice, bid, 28 days): without affecting food intake; weight gain (Db/Db mice [2]; Db/Db mice, bid, 28 days): significantly lowered; also recorded: reduction in weight gain; defecation (Db/Db mice [2]; chronic administration to mice): defecated normally; food intake compared to vehicle-treated animals (Db/Db mice [2]; chronic administration to mice): normal food intake; hyperactivity (as with amphetamine class of weight-loss drugs) (Db/Db mice [2]; mouse, in vivo): did not display the hyperactivity; in vitro activity of Lyn Kinase enzyme (Lyn Kinase enzyme): increased in vitro activity; blood glucose levels / blood glucose load in mouse model of type II diabetes [1]: effective in reducing blood glucose levels; time after drug administration at which significance was lost ([1]; study 1, single administration, 30 mg/kg): 90 min; normal blood glucose levels (pre-glucose loading) ([1]; study 1, single administration, 30 mg/kg, mice): significantly decreased; blood glucose levels produced by oral glucose administration ([1]; study 1, single administration, 30 mg/kg, oral glucose 1.5 g/kg): significantly attenuated; effect on blood glucose levels ([1]; study 2, increased dosing (four times at 30 minute intervals)): more dramatic effect; food intake [3]: not affected; brown, axial, inguinal, renal and epididymal fat pad increases ([3]; day 31): significantly reduced; weight gain ([3]; highest dose tested (30 mg/kg/day)): significantly reduced; also recorded: significant alteration in weight change; blood leptin levels (leptin): reduced leptin levels to those fed a normal diet; blood glucose levels after oral glucose challenge (Zucker rats): reduced blood glucose levels at both time points; also recorded: reduction is blood glucose levels; weight-gain response of animals fed a high fat diet (Db/Db mice [4]): significantly inhibited; acute blood glucose response upon study initiation and on weekly testing (Db/Db mice [5]; 15 mg/kg and 50 mg/kg dose groups): acute dose response; blood glucose levels following acute administration (Db/Db mice [5]; 2 hrs after first dose): reduce blood glucose levels; also recorded: reduction in glucose levels; blood glucose levels, dose dependence (Db/Db mice [5]; IP twice/day, four weeks): dose dependent effect

**Q.** `O=c1ncc(Oc2cccc(Cl)c2)c[nH]1` [Compound 105] was tested. Which “blood glucose levels / blood glucose load in mouse model of type II diabetes” value [1] did it give?
**A.** effective in reducing blood glucose levels

**Q.** What about the “baseline blood glucose levels” value [1, 6] of the same compound?
**A.** significantly depressed

**Q.** What about the “blood glucose levels at all time points after administration” value [1, 6] of the same compound?
**A.** significantly (P<0.05) reduced
